{"source": "patent US7666644B2", "about": "“Glyphosate-N-acetyltransferase (GAT) genes” (Verdia, Inc., priority 2004, dated 2010)", "key": {"[1]": {"test_system": "soybeans expressing GAT and HRA transgenes", "test": "T1 pre-emergence sulfonamide spray of soybeans expressing GAT and HRA transgenes", "type": "in vivo, soybean", "set-up": "key: 9=no leaf/stem discoloration; 7=minor leaf/stem discoloration; 5=worse leaf/stem discoloration; 3=severely discolored plant or dying plant; 1=dead plant", "settings": "70 gms a.i./hectare, 10 days post spray, all HRA and GAT events", "procedure": "T1 seed generated from experiments as described in Example 17, were planted in pots of Tama Silt loam in the greenhouse. Pots were immediately sprayed with a pre-emergence application of chlorimuron, rimsulfuron or tribenuron at a rate of 70 gms a.i./hectare. Germinating plants were evaluated 10 days post spray application based on plant discoloration scores described in Example 17. All HRA and GAT events survived all pre-emergence spray applications with a rating of 9 (uninjured)."}, "[2]": {"test_system": "soybeans expressing GAT and HRA transgenes", "test": "T1 post-emergence sulfonamide spray of soybeans expressing GAT and HRA transgenes", "type": "in vivo, soybean", "settings": "GAT (SEQ ID NO: 824)/SAMS promoter-HRA events", "procedure": "T1 seed generated from experiments as described in Example 17 were germinated in RediEarth^R 360 medium in the greenhouse. Plants were sprayed at the V2-V3 stage (14 days after potting) with thifensulfuron, chlorimuron, rimsulfuron or tribenuron (70, 70, 35, 35 gm a.i./hectare, respectively). Plants were evaluated 10 days post application based on plant discoloration scores described in Example 17.\nEvents having a plant discoloration rating 7 or 8 after thifensulfuron spray were sprayed with either a 2× or 4× application of glyphosate after 10 days as per methods described in Example 17. Events were evaluated based on discoloration scores described in Example 17. All thifensulfuron tolerant events survived the glyphosate spray with score of 7 or 8 (results not shown)."}, "[3]": {"target": "T1, Bacillus licheniformis strain B6 glyphosate-N-acetyltransferase (GAT), native, SEQ ID NO:7 (Bacillus paralicheniformis, UniProt A0AAW6KBE1)", "T1 construct": "untagged", "test": "Apparent KM and kcat of purified GAT (Example 2)", "type": "biochemical", "settings": "read-out: KM for Acetyl CoA; apparent; 5 mM glyphosate, 5 mM morpholine pH 7.7, 50% methanol; MS detection", "method": "Lysis of the cells was effected by the addition of 1 ml of the following buffer to 0.2 g of cells: 25 mM HEPES, pH 7.3, 100 mM KCl and 10% methanol (HKM) plus 0.1 mM EDTA, 1 mM DTT, 1 mg/ml chicken egg lysozyme, and a protease inhibitor cocktail obtained from Sigma and used according to the manufacturer's recommendations. After 20 minutes incubation at room temperature (e.g., 22-25° C.), lysis was completed with brief sonication. The lysate was centrifuged and the supernatant was desalted by passage through Sephadex G25 equilibrated with HKM. Partial purification was obtained by affinity chromatography on CoA Agarose (Sigma). The column was equilibrated with HKM and the clarified extract was allowed to pass through under hydrostatic pressure.\nPurification to homogeneity was obtained by gel filtration of the partially purified protein through Superdex 75 (Pharmacia).\nInitial reaction rates were determined using mass spectrometric detection of N-acetyl glyphosate. Five μl were repeatedly injected into the instrument and reaction rates were obtained by plotting reaction time vs area of the integrated peak (FIG. 6)."}, "[4]": {"test_system": "native or low activity GAT enzymes (glyphosate-N-acetyltransferase)", "test": "Kinetics typical of native or low activity GAT enzymes (Example 4)", "type": "biochemical", "settings": "read-out: KM for acetyl CoA"}, "[5]": {"test_system": "tobacco plants", "test": "Herbicide spray tests of GAT expressing tobacco plants", "type": "in vivo, Nicotiana tabacum", "procedure": "Tobacco shoots generated as described in EXAMPLE 9 were excised from the explants and transferred to basal root induction (BRI) medium composed of half-strength Murashige and Skoog (MS) medium, pH 5.7, with 1.5% sucrose, 0.3% Gelrite, 0-200 uM glyphosate and 400 ug/ml Timentin. Rooted plants and axillary shoots were clonally propagated by cutting the stem and transferring it to fresh BRI medium until the desired number of clones was obtained. Rooted plants were carefully removed from the solid medium. Prior to placing the plants into small pots of soil, the roots were washed to remove any remaining Gelrite. A protective plastic cover was kept over the plants for at least one week until the plants were well established.\nTo determine if GAT expressing tobacco plants could tolerate simulated field rate sprays of glyphosate, clonal lines of several events per GAT variant were tested. A typical test was set up as follows: One clone from each event was sprayed with 1 ml of solution containing the isopropylamine salt of glyphosate (Sigma P5671) and 0.125% Triton X-100, pH 6.8 such that the amount of active ingredient sprayed was equivalent to that present in commercial glyphosate products. For example, to achieve 32 oz/acre (1×) of herbicide containing 40% active ingredient (“ai”), 2.4 ul of 40% ai formulation was diluted into 1 ml water and sprayed on a plant in a 4-inch square pot (16 in^2). A mock application (0×) with surfactant only was also included. In some cases a second spray was applied 1-4 weeks later. Plants were kept in controlled growth rooms at 25° C. and 70% humidity with 16 hr light.\nSeed-grown wild type plants were also sprayed. […] All 0× plants were healthy, including the non-GAT control plants. Three weeks later all of the surviving plants were sprayed with an 8× dose."}, "[6]": {"test": "Transfer of the propionyl group from propionyl CoA to glyphosate, DTNB detection", "type": "biochemical", "settings": "1 mM propionyl CoA, 5 mM glyphosate or no glyphosate, 30 minutes", "procedure": "The ability of GAT variants (B6 (SEQ ID NO:7), 0—6D10 (SEQ ID NO:448), 17-15H3 (SEQ ID NO:601), and 20-8H12c (SEQ ID NO:817)) to transfer the propionyl group from propionyl CoA to glyphosate was tested in reaction mixtures containing 5 mM glyphosate or no glyphosate. Propionyl CoA was present at 1 mM. After 30 minutes the reactions were terminated and the presence of free […] was determined by the addition of DTNB."}, "[7]": {"test_system": "maize plants", "test": "Effect of temperature variation on glyphosate tolerance of T1 maize expressing GAT transgenes", "type": "in vivo", "settings": "cool/cold, warm and hot conditions, 0×, 4×, 6×, 8× glyphosate at V2, scored 5 and 14 days", "procedure": "Maize plants expressing GAT variant transgenes 10—4F2 (SEQ ID NO:203), 17-15H3 (SEQ ID NO:549), and 18-28D9b (SEQ ID NO:814) were produced using the methods described in Example 13. The effect of temperature on glyphosate tolerance was evaluated in T1 plants. The T1 plants were grown in cool/cold (day 14° C., night 8° C.), warm (day 28° C., night 20° C.), and hot (day 37° C., night 20° C.) conditions. T1 plants were sprayed at V2 with four different glyphosate spray treatments (0×, 4×, 6×, and 8×). Plants were scored at 5 and 14 days after treatment for leaf discoloration and plant height comparisons as described in Example 13."}, "[8]": {"test": "Kinetics of GAT variants modified next to the initiating methionine", "type": "biochemical", "description": "A second way to increase plant expression of microbial genes is to increase the G+C content near the initiating methionine residue. Naturally-occurring coding sequences in plants tend to contain two or three G and/or C residues immediately downstream of the ATG initiation codon (Joshi et al. (1997) Plant Mol. Biol. 35:993-1001). Introducing into the gat coding sequence one or two CG-rich codons immediately downstream of the ATG intitiation codon may create a more plant-like coding sequence and thus may enhance its expression in plants."}, "[9]": {"settings": "70 gm a.i./ha post-emergence at V2-V3, 10 days after treatment"}, "[10]": {"settings": "35 gm a.i./ha post-emergence at V2-V3, 10 days after treatment"}}}
{"molecule": "COc1cc(Cl)nc(NC(=O)NS(=O)(=O)c2ccccc2C(=O)O)n1", "note": "[Chlorimuron]", "values": [{"measurement": "plant discoloration rating", "setting": "[1]", "result": 9}, {"measurement": "Average Resistance scores", "setting": "[2]; [9]", "result": 7.75}]}
{"molecule": "COc1nc(C)nc(N(C)C(=O)NS(=O)(=O)c2ccccc2C(=O)O)n1", "note": "[Tribenuron]", "values": [{"measurement": "plant discoloration rating", "setting": "[1]", "result": 9}, {"measurement": "Average Resistance scores", "setting": "[2]; [10]", "result": 3.83}]}
{"molecule": "COc1nc(C)nc(NC(=O)NS(=O)(=O)c2ccsc2C(=O)O)n1", "note": "[Thifensulfuron]", "values": [{"measurement": "Average Resistance scores", "setting": "[2]; [9]", "result": 7.81}]}
{"molecule": "CC(=O)SCCNC(=O)CCNC(=O)[C@H](O)C(C)(C)COP(=O)(O)OP(=O)(O)OC[C@H]1O[C@@H](n2cnc3c(N)ncnc32)[C@H](O)[C@@H]1OP(=O)(O)O", "note": "[acetyl CoA]", "values": [{"measurement": "Km", "setting": "[3]", "result": 2, "unit": "µM"}, {"measurement": "Km", "setting": "[4]", "result": "< 25", "unit": "µM"}]}
{"molecule": "CCS(=O)(=O)c1cccnc1S(=O)(=O)NC(=O)Nc1nc(OC)cc(OC)n1", "note": "[Rimsulfuron]", "values": [{"measurement": "plant discoloration rating", "setting": "[1]", "result": 9}, {"measurement": "Average Resistance scores", "setting": "[2]; [10]", "result": 2.21}]}
{"molecule": "0—6D10: evolved GAT; gene SEQ ID NO:196, enzyme SEQ ID NO:448 (protein, 0_6D10) MLEVKPINAEDTYELRHKILRPNQPLEVCMYETDLLRGAFHLGGFYRGKLISIASFHQAEHSDLQGQKQYQLRGMATLEGYRDQKAGSSLIRHAEQILRKRGADMLWCNARTSASGYYKKLGFSEQGEVFETPPVGPHILMYKRLT", "values": [{"measurement": "outcome two weeks after glyphosate spray", "setting": "[5]; 0.5, 2 or 4× glyphosate (1× = 32 oz/acre of 40% ai), clonally propagated events, average of 5 leaves", "result": "survived the spraying procedure without signs of glyphosate damage"}, {"measurement": "outcome after second spray with an 8× dose", "setting": "[5]; 8× glyphosate three weeks later", "result": "survived"}, {"measurement": "glyphosate-dependent hydrolysis of propionyl CoA", "setting": "[6]", "result": "showed glyphosate-dependent hydrolysis of propionyl CoA"}]}
{"molecule": "10—4F2: evolved GAT; enzyme SEQ ID NO:454, transgene printed as SEQ ID NO:203 (protein, 10_4F2) MLEVKPINAEDTYELRHRILRPNQPIEACMFESDLLRGAFHLGGFYRGKLISIASFHQAEHSELQGQKQYQLRGMATLEGYREQKAGSSLIRHAEEILRKRGADMLWCNARTSASGYYKKLGFSEQGEIFETPPVGPHILMYKRLT", "values": [{"measurement": "effect of growth temperature on glyphosate tolerance", "setting": "[7]", "result": "not adversely effected"}]}
{"molecule": "20-8H12c: GAT variant, SEQ ID NO:817 (protein, 20-8H12c) MIEVKPINAEDTYELRHRVLRPNQPIEACIFESDLMRGAFHLGGFYGGRLISVASFHQAEHSELQGQKQYQLRGMATLEGYREQKAGSSLVKHAEEILRKRGADLLWCNARTSASGYYKKLGFSEQGEVFDTPPVGPHILMYKRIT", "values": [{"measurement": "glyphosate-dependent hydrolysis of propionyl CoA", "setting": "[6]", "result": "showed glyphosate-dependent hydrolysis of propionyl CoA"}]}
{"molecule": "22-15B4 M1MAA: 22-15B4 with two alanines inserted between Met1 and Ile2, SEQ ID NO:948 (protein, 22-15B4 M1MAA) MAAIEVKPINAEDTYDLRHRVLRPNQPIEACMFDSDLMRSAFHLGGFYGGKLISVASFHQAEHTELQGQKQYQLRGVATLEGYREQKAGSSLVKHAEEILRKRGVDLLWCNARTSASGYYKKLGFSEQGEVFDTPPVGPHILMYKRIT", "values": [{"measurement": "kinetics compared to the unmodified enzyme", "setting": "[8]", "result": "reduced kcat"}]}
{"molecule": "18-28D9b: GAT variant transgene, SEQ ID NO:814 (nucleic acid, Synthetic nucleic acid sequence; CDS (1)...(441); 18-28D9b) DNA: ATGATAGAGGTGAAACCGATTAACGCAGAGGATACCTATGAACTAAGGCATAGAATACTCAGACCAAACCAGCCGATAGAAGCGTGTATGTTTGAAAGCGATTTACTTCGTGGTGCATTTCACTTAGGCGGCTTTTACAGGGGCAAACTGATTTCCATAGCTTCATTCCACCAGGCCGAGCACTCGGAACTCCAAGGCCAGAAACAGTACCAGCTCCGAGGTATGGCTACCTTGGAAGGTTATCGTGAGCAGAAAGCGGGATCAACTCTAGTTAAACACGCTGAAGAAATCCTTCGTAAGAGGGGGGCGGACATGCTTTGGTGTAATGCGCGGACATCCGCCTCAGGCTACTACAAAAAGTTAGGCTTCAGCGAGCAGGGAGAGATATTTGACACGCCGCCAGTAGGACCTCACATCCTGATGTATAAAAGGATCACATAA", "values": [{"measurement": "effect of growth temperature on glyphosate tolerance", "setting": "[7]", "result": "not adversely effected"}]}
{"molecule": "22-15B4 M1MA: 22-15B4 with one alanine inserted between Met1 and Ile2, SEQ ID NO:946 (protein, 22-15B4 M1MA) MAIEVKPINAEDTYDLRHRVLRPNQPIEACMFDSDLMRSAFHLGGFYGGKLISVASFHQAEHTELQGQKQYQLRGVATLEGYREQKAGSSLVKHAEEILRKRGVDLLWCNARTSASGYYKKLGFSEQGEVFDTPPVGPHILMYKRIT", "values": [{"measurement": "kinetics compared to the unmodified enzyme", "setting": "[8]", "result": "essentially unaltered kinetics"}]}
